# Results reported in patent US20240000741A1, “ALL-TRANS RETINOIC ACID ENHANCES RADIOTHERAPY AND OVERCOMES IMMUNE SUPPRESSION FOR CANCER THERAPY” (The University of Chicago, priority 2022, published 2024).
# Where a name gives a salt, the structure may show the parent alone.
# B1: IFN-γ: interferon-gamma added to BMDC culture (protein, UniProt P01580 23-155, looked up)
# Interferon gamma: HGTVIESLESLNNYFNSSGIDVEEKSLFLDIWRNWQKDGDMKILQSQIISFYLRLFEVLKDNQAISNNISVIESHLITTFFSNSKAKKDAFMSIAKFEVNNPQVQRQAFNELIRVVHQLLPESSLRKRKRSRC
# Assays:
# immune cells in tumors = test: Flow cytometric analysis of immune cells in treated MC38 tumors and draining lymph nodes; type: in vivo, mouse; conditions: FTY720 administration, after IR+RA treatment
# Description: Single cell suspensions were obtained as previously described (40). Cells were blocked with anti-Fc receptor (2.4 G2, BioXCell, Lebanon, New Hampshire, United States of America) and stained for live/dead with Zombie UV, followed staining using antibodies against CD45, CD4, CD8, NK1.1, CD11b, CD11c, Ly6C, Ly6G, F4/80, CD44, CD62L.
# The following antibodies were used for high-dimensional flow analysis: BV605-CX3CR, BV650-XCR1, PB-CD11 b, BV510-CD24, BV711-CD64, BV785-F4/80, AF532-CD45, PerCP-Cy5.5-1-A/I-E, PerCP-eFluor710-Flt3, PE-Cy7-CD11c, FITC-Ly6C, PE-iNOS, PE-Dazzle 594-CD103, APC-TNF, Alexa Fluor 700-CD206, and APC-Cy7-SIRPα. For IFN-γ and GrzB (515407) staining, cells were cultured with PMA/ionomycin and brefeldin A (423303, BioLegend, San Diego, California, United States of America) for 6 hours followed by intracellular staining using BD fix/perm intracellular staining kit (554714, BD Biosciences, Franklin Lakes, New Jersey, United States of America). For TNF-α staining, cells were stimulated by PMA/ionomycin and brefeldin A for 4 hours followed by intracellular staining. Foxp3 (17-5773-82, Thermo Fisher Scientific, Waltham, Massachusetts, United States of America) Ki67 (Clone 16-A8, BioLegend, San Diego, California, United States of America) and iNOS staining were performed following Foxp3 staining protocol (00-5523-00, Thermo Fisher Scientific, Waltham, Massachusetts, United States of America). Cells were analyzed on Fortessa flow cytometer (BD Biosciences, Franklin Lakes, New Jersey, United States of America) or on Aurora spectral cytometer (Cytek Biosciences, Fremont, California, United States of America. Data was analyzed with software sold under the tradename FLOWJO software (FlowJo LLC, Ashland, Oregon, United States of America).
# Immune cells in tumors 4 days after the start of the treatment were examined. […] In CD11b+ subsets, Ly6C^+ cells, including CD11c^+Ly6C^+ cells, increased by 4-fold in tumors receiving the combination treatment. […] Next, the DC population was examined by analyzing high-dimensional flow cytometry data using traditional dendritic cell (DC) markers. Monocyte-derived dendritic cells (MoDCs) (Ly6C^+CD11 b^+CD11c^+ MHC-II^+CXCR3^+CD64^+SIRPα^+CD206^− cells), a low level of type two dendritic cells (DC2s) (Ly6C^−CD11b^+CD11c^+MHC-11^+CXCR3^+CD64^−SIRPα+CD206^−) and a very low level of type one dendritic cells (DC1s) (Ly6C^−CD11b^−CD11c^+MHC-11^+ CXCR1^+CD103^+CD64^−) were detected in IR and RA treated tumors.
# [1] = tested on: MC38 colon carcinoma tumors; test: MC38 tumor growth after local ablative IR and/or RA; type: in vivo, mouse
# [2] = tested on: bone marrow-derived DCs (BMDCs); test: iNOS induction in bone marrow-derived dendritic cells in vitro; type: cell-based, mouse; conditions: addition of IFN-γ to BMDCs cultured with RA
# Protocol: Femurs and tibias from 8- to 10-week-old mice were harvested. BMDCs were derived as described (40). The cultured BMDC were collected on day 6 for further experiments. For Inf-MAC induction in vitro, bone marrow cells were cocultured with the presence of 200 μM RA. On day 6, indicated amount of IFN-γ was added directly to the culture. Cells were stained for iNOS and TNF-α after 24-36 hours and analyzed using flow cytometry.
molecule,measurement,setting,value
"CCCCCCCCc1ccc(CCC(N)(CO)CO)cc1 [FTY720, fingolimod hydrochloride]",iNOS production in Inf-MACs in tumors and in circulating blood,immune cells in tumors,abolishes increased iNOS production
same,efficacy of IR+RA treatment,[1]; FTY720 20 μg per dose by gavage every day for 7 days,diminished to the level of IR alone
same,response to IR,"[1]; FTY720 20 μg per dose by gavage every day for 7 days, IR alone",not affected
"CC(=N)NCc1cccc(CN)c1.Cl.Cl [1400 W, N-[[-(aminomethyl)phenyl]methyl]-ethanimidamide dihydrochloride]",antitumor efficacy of combined IR and RA treatment,[1]; iNOS inhibitor 1400 W administered in vivo,significantly diminished
B1,iNOS production in BMDCs,[2],synergistically increased iNOS production in a dose dependent manner
